From US9102648B1, “Bioavailable diacylhydrazine ligands for modulating the expression of exogenous genes via an ecdysone receptor complex” (Intrexon Corporation, priority 2003, dated 2015)
Where two headings read alike, the source gives them in different places.

Assays:
[1] = biological target: GAL4 DBD-CfEcR(DEF)/VP16AD-MmRXRE (Choristoneura fumiferana, UniProt O77240); assay: 13B3 Assay (CHO stable cell line, luciferase reporter); conditions: for Fold Induction, 13B3 Assay, 3.3 uM: 3.3 uM ligand; for Fold Induction, 13B3 Assay, 3.3 uM / Fold Induction, 13B3 Assay, 33 uM: RLU ligand treated / RLU DMSO treated cells; for Fold Induction, 13B3 Assay, 33 uM: 33 uM ligand; for 13B3 assay Rel Max FI: maximum fold induction at any concentration relative to that of GS-E ligand, CHO 13B3 cells; for fold induction at 33 µM: read-out: Fold Induction, 13B3 Assay, 33 uM
Text: GAL4 DBD-CfEcR(DEF)/VP16AD-MmRXRE:
The wild-type D, E, and F domains from spruce budworm Choristoneura fumiferana EcR (“CfEcR-DEF”; SEQ ID NO: 1) were fused to a GALA DNA binding domain (“Gal4DBD1-147”; SEQ ID NO: 2) and placed under the control of the SV40e promoter of pM vector (PT3119-5, Clontech, Palo Alto, Calif.). The D and E domains from Mus Musculus RXR (“MmRXR-DE”; SEQ ID NO: 11) were fused to the transactivation domain from VP16 (“VP16AD”; SEQ ID NO: 6) and placed under the control of the SV40e promoter of the pVP16 vector (PT3127-5, Clontech, Palo Alto, Calif.).
CHO cells were transiently transfected with transcription cassettes for GAL4 DBD-CJEcR(DEF) and for VP16AD-MmRXRE controlled by SV40e promoters. Stably transfected cells were selected using Hygromycin. Individually isolated CHO cell clones were transiently transfected with a GALA RE-luciferase reporter (pFR-Luc, Stratagene, La Jolla, Calif.). The 13B3 clone was selected using Zeocin.
Cells were trypsinized and diluted to a concentration of 2.5×10^4 cells mL. 100 μL of cell suspension was placed in each well of a 96 well plate and incubated at 37° C. under 5% CO2 for 24 h. Ligand stock solutions were prepared in DMSO and diluted 300 fold for all treatments. Dose response testing consisted of 8 concentrations ranging from 33 μM to 0.01 μM.
Luciferase reporter gene expression was measured 48 h after cell treatment using Bright-Glo™ Luciferase Assay System from Promega (E2650). Luminescence was detected at room temperature using a Dynex MLX microtiter plate luminometer.
Each assay was conducted in two separate wells, and the two values were averaged. Fold inductions were calculated by dividing relative light units (“RLU”) in ligand treated cells with RLU in DMSO treated cells. EC50s were calculated from dose response data using a three-parameter logistic model.

[2] = biological target: T1, Bombyx mori EcR (VP16 fusion, CVBE switch construct) (Bombyx mori, UniProt P49881); assay: Z3 Assay (HEK-293 cells with CVBE and 6XEcRE LacZ, β-galactosidase reporter); conditions: for Fold Induction, Z3 Assay, 3.3 uM: 3.3 uM ligand; for Fold Induction, Z3 Assay, 3.3 uM / Fold Induction, Z3 Assay, 33 uM: ligand treated / DMSO treated cells; for Fold Induction, Z3 Assay, 33 uM: 33 uM ligand; for Z3 assay Rel Max FI: maximum fold induction at any concentration relative to that of GS-E ligand; for fold induction at 33 µM: HEK293, read-out: Fold Induction, Z3 Assay, 33 uM
T1 sequence (P49881 86-606): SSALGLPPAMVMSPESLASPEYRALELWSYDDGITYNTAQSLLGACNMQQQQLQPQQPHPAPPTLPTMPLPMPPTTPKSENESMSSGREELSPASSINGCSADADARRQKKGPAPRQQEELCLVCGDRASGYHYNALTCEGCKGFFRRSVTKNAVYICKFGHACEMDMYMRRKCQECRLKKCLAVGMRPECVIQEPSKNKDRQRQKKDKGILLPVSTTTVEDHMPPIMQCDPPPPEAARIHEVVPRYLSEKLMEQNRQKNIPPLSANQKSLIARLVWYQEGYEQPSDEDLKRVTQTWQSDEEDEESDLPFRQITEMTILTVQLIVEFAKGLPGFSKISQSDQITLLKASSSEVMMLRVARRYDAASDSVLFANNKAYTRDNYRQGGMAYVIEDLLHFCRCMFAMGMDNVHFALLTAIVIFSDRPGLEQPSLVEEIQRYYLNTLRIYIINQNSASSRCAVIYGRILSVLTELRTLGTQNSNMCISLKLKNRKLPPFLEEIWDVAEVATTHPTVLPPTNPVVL
T1 sequence (P19793 1-462 partner): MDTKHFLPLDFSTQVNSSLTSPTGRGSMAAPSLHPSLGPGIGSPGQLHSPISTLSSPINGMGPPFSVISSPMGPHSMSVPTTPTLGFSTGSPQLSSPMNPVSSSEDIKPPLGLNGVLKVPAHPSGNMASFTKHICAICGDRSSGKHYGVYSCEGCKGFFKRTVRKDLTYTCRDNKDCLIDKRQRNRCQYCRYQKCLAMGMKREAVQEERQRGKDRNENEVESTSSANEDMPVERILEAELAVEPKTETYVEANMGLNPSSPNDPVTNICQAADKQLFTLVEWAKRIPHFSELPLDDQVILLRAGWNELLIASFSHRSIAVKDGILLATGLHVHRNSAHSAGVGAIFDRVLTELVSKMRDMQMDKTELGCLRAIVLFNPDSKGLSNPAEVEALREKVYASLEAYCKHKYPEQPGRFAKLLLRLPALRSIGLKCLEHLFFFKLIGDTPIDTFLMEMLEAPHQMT

[3] = read-out: 13B3 EC50, CHO 13B3 stable cell line, luciferase reporter, 48 h, average of two wells
[4] = read-out: Z3 assay EC50, HEK-293 Z3 cells, β-galactosidase reporter, average of two wells

| SMILES | Fold Induction, 13B3 Assay, 3.3 uM ([1]; average of two wells) | Fold Induction, 13B3 Assay, 33 uM ([1]; average of two wells) | 13B3 assay Rel Max FI [1] | EC50 [1, 3] [nM] | Fold Induction, Z3 Assay, 3.3 uM ([2]; average of two wells) | Fold Induction, Z3 Assay, 33 uM ([2]; average of two wells) | Z3 assay Rel Max FI ([2]; HEK-293 Z3 cells) | EC50 [2, 4] [nM] | fold induction at 33 µM [1] | fold induction at 33 µM [2] | EC50 [1] [nM] | fold induction at 3.3 µM ([1]; read-out: Fold Induction, 13B3 Assay, 3.3 uM) | EC50 [2] [nM] | fold induction at 3.3 µM ([2]; HEK293, read-out: Fold Induction, Z3 Assay, 3.3 uM) |
| --- | --- | --- | --- | --- | --- | --- | --- | --- | --- | --- | --- | --- | --- | --- |
| COc1cccc(C(=O)NN(C(=O)c2cc(C)cc(C)c2)C(C)(C)C)c1I [RG-101528] | 259 | 3027 | 1.111 | 29300 | 748 | 1515 | 0.923 | 1050 | – | – | – | – | – | – |
| Cc1cc(C)cc(C(=O)N(NC(=O)c2ccc3c(c2)CCO3)C(C)(C)C)c1 [RG-101531] | – | 274 | – | – | 1130 | 428 | – | 85 | – | – | – | – | – | – |
| Cc1ccc(C(=O)NN(C(=O)c2cc(C)cc(C)c2)C(C)(C)C)cc1 [RG-101542] | – | 439 | – | – | 1151 | 324 | 0.793 | 324 | – | – | – | – | – | – |
| Cc1cc(C(=O)N(NC(=O)c2cccc(Cl)c2C)C(C)(C)C)ccc1Br [RG-101664] | 1 | – | 0.002 | > 50000 | 6 | 1 | – | 21100 | – | – | – | – | – | – |
| Cc1cc(C)cc(C(=O)N(NC(=O)c2cccc(OC(C)C)c2C)C(C)(C)C)c1 [RG-101670] | 2297 | 738 | 0.874 | 646 | 1190 | 929 | 0.853 | 468 | – | – | – | – | – | – |
| Cc1cc(C)cc(C(=O)N(NC(=O)c2cccc(I)c2C)C(C)(C)C)c1 [RG-101734] | 918 | 442 | – | – | 987 | 951 | 0.988 | 145 | – | – | – | – | – | – |
| CC(C)(C)N(NC(=O)c1ccc(Br)cc1)C(=O)c1cc(Cl)cc(Cl)c1 [RG-101759] | 623 | 137 | 0.336 | 877 | 796 | 158 | 0.639 | 331 | – | – | – | – | – | – |
| CCc1ccc(C(=O)NN(C(=O)c2cc(C)c(Cl)c(C)c2)C(C)(C)C)cc1 [RG-101862] | 3279 | 293 | 0.861 | 1050 | 717 | 250 | 0.866 | 269 | – | – | – | – | – | – |
| CCc1ccc(C(=O)NN(C(=O)c2cc(C)cc(C)c2)C(C)(C)C)cc1CC [RG-101889] | – | 378 | – | – | 1085 | 245 | – | 3300 | – | – | – | – | – | – |
| Cc1cc(C)cc(C(=O)N(NC(=O)c2ccc3c(c2C)CCCO3)C(C)(C)C)c1 [RG-102408] | 25 | – | 0.662 | 91 | 249 | – | 1.114 | 54 | – | – | – | – | – | – |
| CCC(N(NC(=O)c1cccc(C)c1C)C(=O)c1cccc(C)c1)C(C)(C)C (stereo not shown) [RG-104074] | 544 | 5378 | 0.812 | 865 | 189 | 200 | 1.122 | 307 | – | – | – | – | – | – |
| C=CCOCc1c(OC)cccc1C(=O)NN(C(=O)c1cc(C)cc(C)c1)C(C)(C)C [RG-115003, 3,5-dimethyl-benzoic acid N′-(2-allyloxymethyl-3-methoxy-benzoyl)-N-tert-butyl-hydrazide] | – | – | – | – | – | – | – | – | 301 | 1280 | – | – | – | – |
| CCc1c(OC)cccc1C(=O)NN(C(=O)c1cc(C)cc(C)c1)C(C)(C)COC [RG-115006, 2-ethyl-3-methoxy-benzoic acid N′-(3,5-dimethyl-benzoyl)-N′-(2-methoxy-1,1-dimethyl-ethyl)-hydrazide] | – | – | 0.890 | – | – | – | 1.031 | – | 3150 | 1070 | 3500 | 4180 | 275 | 415 |
| CCc1c(OC)cccc1C(=O)NN(C(=O)c1cccc(Br)c1)C(C)(C)C [RG-115038] | 4119 | 4970 | 1.172 | 1740 | 600 | 321 | 1.064 | 550 | – | – | – | – | – | – |
| CCc1c(OC)cccc1C(=O)NN(C(=O)c1cc(C)cc(C)c1)C(C)(C)C#N [RG-115043] | 835 | 547 | 0.852 | 2670 | 466 | 1588 | 0.943 | 178 | – | – | – | – | – | – |
